Target: Flag-DOR (murine DOR tagged with Flag at the N-terminus) (Mus musculus, UniProt P32300)
Sequence (P32300 whole entry): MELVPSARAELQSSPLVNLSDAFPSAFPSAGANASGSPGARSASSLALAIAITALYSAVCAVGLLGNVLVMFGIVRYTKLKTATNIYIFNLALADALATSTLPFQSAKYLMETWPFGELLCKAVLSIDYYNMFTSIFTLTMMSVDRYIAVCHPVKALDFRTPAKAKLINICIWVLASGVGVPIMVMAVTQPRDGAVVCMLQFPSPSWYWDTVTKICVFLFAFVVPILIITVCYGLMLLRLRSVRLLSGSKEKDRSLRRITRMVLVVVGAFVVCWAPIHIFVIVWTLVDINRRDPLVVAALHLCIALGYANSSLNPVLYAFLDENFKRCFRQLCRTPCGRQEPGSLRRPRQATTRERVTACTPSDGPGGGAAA

Structure (SMILES): C=CCN1C[C@H](C)N([C@H](c2ccc(C(=O)N(CC)CC)cc2)c2cccc(OC)c2)C[C@H]1C [SNC-80, (1)-4-[(αR)-α-((2S,5R)-4-allyl-2,5-dimethyl-1-piperazinyl)-3-methoxybenzyl]-N,N-diethylbenzamide]
- log KA ± SEM (M): −6.58 ± 0.43 log M

From article PMC3952036 (Cellular and molecular life sciences : CMLS, 2014)
